Experimental data: US10246466B2, “Diaryl macrocycles as modulators of protein kinases” (TP THERAPEUTICS, INC., priority 2014, dated 2019)

Legend:
[1] = test system: Essential thrombocythemia cell line SET-2 cells (harboring endogenous JAK2 point mutation); test: SET-2 cell proliferation assay (CellTiter-Glo); assay type: cell-based; conditions: Homo sapiens, 72 hours incubation, read-out: SET2 cell proli. IC50
[2] = test system: T cell lymphoma Karpas-299 cell line (harboring endogenous NPM-ALK fusion gene); test: Karpas-299 cell proliferation assay (CellTiter-Glo); assay type: cell-based; conditions: Homo sapiens, 72 hours incubation, read-out: Karpas 299 cell proli. IC50
[3] = test system: Colorectal cell line KM12 (harboring endogenous TPM3-TRKA fusion gene); test: KM12 cell proliferation assay (CellTiter-Glo); assay type: cell-based; conditions: Homo sapiens, 72 hours incubation, read-out: KM 12 cell prolif. IC50
Protocol: (§1) Colorectal cell lines KM 12 (harboring endogenous TPM3-TRKA fusion gene) cells were cultured in DMEM medium, supplemented with 10% fetal bovine serum and 100 U/mL of penicillin/streptomycin. 5000 cells were seeded in 384 well white plate for 24 hours before compounds treatment. Cell proliferation was measured using CellTiter-Glo luciferase-based ATP detection assay (Promega) following the manufactures's protocol after 72 hours incubation. IC50 determinations were performed using GraphPad Prism software (GraphPad, Inc., San Diego, Calif.).
as §1, with “Alternatively: Colorectal” for “Colorectal”, “line KM12” for “lines KM 12”, “penicillin/streptomycin. […]” for “penicillin/streptomycin.”

[4] = test system: Ba/F3-EML4-ALK wild type cell line; test: EML4-ALK Ba/F3 cell proliferation assay (CellTiter-Glo); assay type: cell-based; conditions: 48 hours incubation
Protocol: The EML4-ALK wild-type gene (variant 1) was synthesized at GenScript and cloned into pCDH-CMV-MCS-EF1-Puro plasmid (System Biosciences, Inc). Ba/F3-EML4-ALK wild type cell line was generated by infecting Ba/F3 cells with lentivirus containing EML4-ALK wide-type. Stable cell lines were selected by puromycin treatment, followed by IL-3 withdrawal. 5000 cells were seeded in 384 well white plate overnight before compound treatment. Cell proliferation was measured using CellTiter-Glo luciferase-based ATP detection assay (Promega) following the manufactures's protocol after 48 hours of various concentration of compound incubation. IC50 determinations were performed using GraphPad Prism software (GraphPad, Inc., San Diego, Calif.).

TRKA = TRKA (Homo sapiens (Human), UniProt P04629); test: KINOMEscan kinase binding assay (DiscoveRx)
Protocol: (§2) Kinase binding assays were performed at DiscoveRx using the general KINOMEscan Kd Protocol (Fabian, M. A. et al., “A small molecule-kinase interaction map for clinical kinase inhibitors,” Nat. Biotechnol. 2005, 23(3):329-36). For most assays, kinase-tagged T7 phage strains were prepared in an E. coli host derived from the BL21 strain. E. coli were grown to log-phase and infected with T7 phage and incubated with shaking at 32° C. until lysis. The lysates were centrifuged and filtered to remove cell debris. The remaining kinases were produced in HEK-293 cells and subsequently tagged with DNA for qPCR detection. Streptavidin-coated magnetic beads were treated with biotinylated small molecule ligands for 30 minutes at room temperature to generate affinity resins for kinase assays. The liganded beads were blocked with excess biotin and washed with blocking buffer (SeaBlock (Pierce), 1% BSA, 0.05% Tween 20, 1 mM DTT) to remove unbound ligand and to reduce nonspecific binding. […] All reactions were performed in polystyrene 96-well plates in a final volume of 0.135 mL. […] The beads were then re-suspended in elution buffer (1×PBS, 0.05% Tween 20, 0.5 μM non-biotinylated affinity ligand) and incubated at room temperature with shaking for 30 minutes. The kinase concentration in the eluates was measured by qPCR.

JAK3 = JAK3 (Homo sapiens (Human), UniProt P52333); test: KINOMEscan kinase binding assay (DiscoveRx)
Protocol: as §2

JAK1 = JAK1 (Homo sapiens (Human), UniProt P23458); test: KINOMEscan kinase binding assay (DiscoveRx)
Protocol: as §2

ROS1 = ROS1 (Homo sapiens (Human), UniProt P08922); test: KINOMEscan kinase binding assay (DiscoveRx)
Protocol: as §2

ALK = ALK (Homo sapiens (Human), UniProt Q9UM73); test: KINOMEscan kinase binding assay (DiscoveRx)
Protocol: (§3) For most assays, kinase-tagged T7 phage strains were prepared in an E. coli host derived from the BL21 strain. E. coli were grown to log-phase and infected with T7 phage and incubated with shaking at 32° C. until lysis. The lysates were centrifuged and filtered to remove cell debris. The remaining kinases were produced in HEK-293 cells and subsequently tagged with DNA for qPCR detection. […] The liganded beads were blocked with excess biotin and washed with blocking buffer (SeaBlock (Pierce), 1% BSA, 0.05% Tween 20, 1 mM DTT) to remove unbound ligand and to reduce nonspecific binding. […] All reactions were performed in polystyrene 96-well plates in a final volume of 0.135 mL. […] The kinase concentration in the eluates was measured by qPCR.

JAK2 = JAK2 (Homo sapiens (Human), UniProt O60674); test: KINOMEscan kinase binding assay (DiscoveRx)
Protocol: as §3

KM12 cells = test: Caspase activity assay / PARP western blot; assay type: cell-based; conditions: 72 hours
Protocol: KM12 cells were maintained in DMEM medium supplemented with 10% fetal bovine serum and antibiotics. 500,000 cells were seeded in 12-well plate and various concentration of compounds were introduced for 72 hours For staurosporine treatment, 500 nM of STS were added at time of 60 hours and incubation of 12 hours as a positive control. All the cells were collected and washed with 1×PBS twice and then lysed in a lysis buffer (20 mM HEPES, 150 mM NaCl, 10 mM KCl, 5 mM EDTA, 1% NP40) supplemented with Halt protease and phosphatase inhibitors (Thermo Scientific). For caspase assays, around 20 μL (20 μg) of cell lysate were incubated with 20 μL of caspase3 glo reagent (Promega), measuring enzyme activity by the release of luminescence after 20 min incubation at 37° C. For western blotting, cell lysates were boiled and analyzed by SDS-PAGE/immunoblotting using PARP, or actin antibodies.

ERK = test: Downstream signal target phosphorylation assay in KM12 cells (western blot); assay type: cell-based; conditions: Homo sapiens, 5 hours treatment, read-out: inhibition of phosphorylation of ERK IC50
Protocol: (§4) Colorectal cell lines KM 12 (harboring endogenous TPM3-TRKA fusion gene) cells were cultured in DMEM medium, supplemented with 10% fetal bovine serum and 100 U/mL of penicillin/streptomycin. One million cells were seeded in 6-well plate for 24 hours before compounds treatment. Cells were washed with 1×PBS and collected after 5 hours treatment and lysed in RIPA buffer (50 mM Tris, pH 7.4, 150 mM NaCl, 1% NP-40, 0.5% Deoxycholate, 0.1% SDS) supplemented with 10 mM EDTA, Halt protease and phosphatase inhibitors (Thermo Scientific). Protein lysates (20 μg) were resolved on 4-12% Bolt Bis-Tris precasted gels with MES running buffer (Life Technologies), transferred to nitrocellulose membranes using Trans-Blot Turbo Transfer System (Bio-Rad) and detected with antibodies targeting phosphorylated TRK A (Cell Signaling Technology, Y496, Y680, Y681, clone C50F3; 1:1000 dilution), total TRK A (Santa Cruz Biotechnology, sc-11; clone C-14, 1:2000 dilution), phosphorylated AKT (Cell signaling, S473, D9E, #9271; 1:5000 dilution), total AKT (Cell Signaling Technology, 40D4; 1:2000 dilution), phosphorylated ERK (Cell Signaling Technology, Thr 202/204, D13.14.4E, #4370; 1:2000 dilution), total ERK (Cell Signaling Technology; 1:1000 dilution) and Tubulin (Sigma, T4026, 1:5000 dilution). […]

AKT = test: as above; assay type: cell-based; conditions: Homo sapiens, 5 hours treatment, read-out: inhibition of phosphorylation of AKT IC50
Protocol: as §4

TPM3-TRKA = TPM3-TRKA (Homo sapiens (Human), UniProt P04629+P06753); test: TRKA phosphorylation assay in KM12 cells (western blot); assay type: cell-based; conditions: 5 hours treatment, read-out: inhibition of autophosphorylation of TPM3-TRKA IC50
Protocol: as §4

TRKB = TRKB (Homo sapiens (Human), UniProt Q16620); test: KINOMEscan kinase binding assay (DiscoveRx)
Protocol: as §2

PLK4 kinase = PLK4 kinase (Homo sapiens (Human), UniProt O00444); test: KINOMEscan kinase binding assay (DiscoveRx); conditions: read-out: binding affinity with PLK4 kinase (Kd)
Protocol: as §2

Sequence of JAK2 (O60674 whole entry): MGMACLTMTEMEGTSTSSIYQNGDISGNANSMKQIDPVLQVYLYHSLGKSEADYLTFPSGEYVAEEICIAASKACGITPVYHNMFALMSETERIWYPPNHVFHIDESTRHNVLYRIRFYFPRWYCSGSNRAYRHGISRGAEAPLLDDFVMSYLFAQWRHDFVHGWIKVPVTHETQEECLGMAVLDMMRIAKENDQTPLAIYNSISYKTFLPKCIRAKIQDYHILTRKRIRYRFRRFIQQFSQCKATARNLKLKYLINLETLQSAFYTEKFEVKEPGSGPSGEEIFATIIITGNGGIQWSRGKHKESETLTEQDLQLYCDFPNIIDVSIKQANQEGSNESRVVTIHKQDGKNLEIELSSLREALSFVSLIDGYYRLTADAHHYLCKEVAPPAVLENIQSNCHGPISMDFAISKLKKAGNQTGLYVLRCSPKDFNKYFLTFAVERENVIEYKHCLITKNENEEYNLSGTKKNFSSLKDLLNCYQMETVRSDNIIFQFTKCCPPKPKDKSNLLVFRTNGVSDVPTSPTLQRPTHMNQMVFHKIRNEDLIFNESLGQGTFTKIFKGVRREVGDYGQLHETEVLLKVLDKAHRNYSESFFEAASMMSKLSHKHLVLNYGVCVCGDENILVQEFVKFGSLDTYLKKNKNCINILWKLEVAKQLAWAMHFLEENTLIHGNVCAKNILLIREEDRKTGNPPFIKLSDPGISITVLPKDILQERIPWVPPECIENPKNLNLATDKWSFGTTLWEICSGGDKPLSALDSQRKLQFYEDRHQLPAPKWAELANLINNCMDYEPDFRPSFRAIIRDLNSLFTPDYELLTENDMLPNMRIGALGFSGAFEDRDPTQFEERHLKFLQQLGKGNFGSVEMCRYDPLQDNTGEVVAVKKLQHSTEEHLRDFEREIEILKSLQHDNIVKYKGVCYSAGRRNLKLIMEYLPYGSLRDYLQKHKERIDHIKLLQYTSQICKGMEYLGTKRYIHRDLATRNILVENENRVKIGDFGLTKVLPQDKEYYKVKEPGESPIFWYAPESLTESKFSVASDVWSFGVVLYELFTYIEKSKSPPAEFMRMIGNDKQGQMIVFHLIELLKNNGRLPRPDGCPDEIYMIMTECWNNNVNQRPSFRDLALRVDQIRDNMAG
Sequence of JAK3 (P52333 whole entry): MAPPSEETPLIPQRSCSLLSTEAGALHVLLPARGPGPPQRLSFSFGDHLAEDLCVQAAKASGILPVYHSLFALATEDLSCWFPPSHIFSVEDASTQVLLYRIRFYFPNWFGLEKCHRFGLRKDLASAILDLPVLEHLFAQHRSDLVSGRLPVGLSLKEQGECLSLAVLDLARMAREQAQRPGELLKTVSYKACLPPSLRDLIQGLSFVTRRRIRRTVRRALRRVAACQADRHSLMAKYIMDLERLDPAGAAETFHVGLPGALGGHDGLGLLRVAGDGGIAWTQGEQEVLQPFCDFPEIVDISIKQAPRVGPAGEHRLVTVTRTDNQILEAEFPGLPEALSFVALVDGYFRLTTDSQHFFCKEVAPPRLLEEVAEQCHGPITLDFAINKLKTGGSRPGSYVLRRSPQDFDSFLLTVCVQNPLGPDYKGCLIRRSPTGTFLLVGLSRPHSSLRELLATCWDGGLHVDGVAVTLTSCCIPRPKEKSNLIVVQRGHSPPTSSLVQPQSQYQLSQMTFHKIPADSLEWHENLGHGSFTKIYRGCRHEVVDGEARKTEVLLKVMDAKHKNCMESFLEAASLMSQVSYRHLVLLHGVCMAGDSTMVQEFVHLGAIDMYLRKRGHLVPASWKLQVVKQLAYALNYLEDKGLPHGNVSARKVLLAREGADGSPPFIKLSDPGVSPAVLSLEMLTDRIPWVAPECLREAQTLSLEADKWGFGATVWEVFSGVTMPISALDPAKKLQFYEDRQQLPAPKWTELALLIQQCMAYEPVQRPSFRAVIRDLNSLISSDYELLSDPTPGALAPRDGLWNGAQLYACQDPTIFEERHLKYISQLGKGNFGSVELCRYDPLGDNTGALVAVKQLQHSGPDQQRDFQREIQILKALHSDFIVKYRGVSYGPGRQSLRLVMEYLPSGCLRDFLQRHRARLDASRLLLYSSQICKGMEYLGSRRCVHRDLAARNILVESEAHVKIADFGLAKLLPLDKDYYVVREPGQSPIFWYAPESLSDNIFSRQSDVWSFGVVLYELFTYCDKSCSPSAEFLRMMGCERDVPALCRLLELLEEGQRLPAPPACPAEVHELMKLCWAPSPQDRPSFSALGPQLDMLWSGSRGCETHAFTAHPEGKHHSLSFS
Sequence of JAK1 (P23458 whole entry): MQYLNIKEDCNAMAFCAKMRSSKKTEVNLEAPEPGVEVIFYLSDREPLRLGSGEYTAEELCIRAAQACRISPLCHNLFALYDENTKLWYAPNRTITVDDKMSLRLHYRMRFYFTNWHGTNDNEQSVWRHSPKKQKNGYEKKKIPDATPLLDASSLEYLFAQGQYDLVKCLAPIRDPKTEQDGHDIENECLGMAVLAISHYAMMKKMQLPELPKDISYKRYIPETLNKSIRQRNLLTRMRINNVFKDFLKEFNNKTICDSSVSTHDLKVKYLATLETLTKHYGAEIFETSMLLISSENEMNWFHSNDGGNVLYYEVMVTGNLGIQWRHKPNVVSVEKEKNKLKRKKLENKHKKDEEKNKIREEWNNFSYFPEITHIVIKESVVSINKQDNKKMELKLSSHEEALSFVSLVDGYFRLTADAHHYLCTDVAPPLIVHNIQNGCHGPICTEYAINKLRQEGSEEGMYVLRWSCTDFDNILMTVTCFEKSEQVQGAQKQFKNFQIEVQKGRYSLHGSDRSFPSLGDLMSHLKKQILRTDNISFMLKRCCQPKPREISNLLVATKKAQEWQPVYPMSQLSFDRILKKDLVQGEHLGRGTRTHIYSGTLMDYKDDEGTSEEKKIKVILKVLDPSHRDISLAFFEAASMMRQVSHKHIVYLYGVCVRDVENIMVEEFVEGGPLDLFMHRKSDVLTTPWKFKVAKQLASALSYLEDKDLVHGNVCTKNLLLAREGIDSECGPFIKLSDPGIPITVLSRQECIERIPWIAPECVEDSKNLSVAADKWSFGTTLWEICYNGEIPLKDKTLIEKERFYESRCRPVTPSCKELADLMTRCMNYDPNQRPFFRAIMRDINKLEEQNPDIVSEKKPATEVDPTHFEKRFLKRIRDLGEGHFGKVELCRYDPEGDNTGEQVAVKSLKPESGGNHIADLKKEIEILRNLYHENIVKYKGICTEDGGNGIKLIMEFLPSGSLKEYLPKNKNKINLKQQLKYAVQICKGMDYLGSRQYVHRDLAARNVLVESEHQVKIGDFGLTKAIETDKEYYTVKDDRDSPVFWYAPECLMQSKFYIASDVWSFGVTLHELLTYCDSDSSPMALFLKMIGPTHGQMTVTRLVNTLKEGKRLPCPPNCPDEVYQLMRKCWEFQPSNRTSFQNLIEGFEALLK
Sequence of ALK (Q9UM73 19-1620): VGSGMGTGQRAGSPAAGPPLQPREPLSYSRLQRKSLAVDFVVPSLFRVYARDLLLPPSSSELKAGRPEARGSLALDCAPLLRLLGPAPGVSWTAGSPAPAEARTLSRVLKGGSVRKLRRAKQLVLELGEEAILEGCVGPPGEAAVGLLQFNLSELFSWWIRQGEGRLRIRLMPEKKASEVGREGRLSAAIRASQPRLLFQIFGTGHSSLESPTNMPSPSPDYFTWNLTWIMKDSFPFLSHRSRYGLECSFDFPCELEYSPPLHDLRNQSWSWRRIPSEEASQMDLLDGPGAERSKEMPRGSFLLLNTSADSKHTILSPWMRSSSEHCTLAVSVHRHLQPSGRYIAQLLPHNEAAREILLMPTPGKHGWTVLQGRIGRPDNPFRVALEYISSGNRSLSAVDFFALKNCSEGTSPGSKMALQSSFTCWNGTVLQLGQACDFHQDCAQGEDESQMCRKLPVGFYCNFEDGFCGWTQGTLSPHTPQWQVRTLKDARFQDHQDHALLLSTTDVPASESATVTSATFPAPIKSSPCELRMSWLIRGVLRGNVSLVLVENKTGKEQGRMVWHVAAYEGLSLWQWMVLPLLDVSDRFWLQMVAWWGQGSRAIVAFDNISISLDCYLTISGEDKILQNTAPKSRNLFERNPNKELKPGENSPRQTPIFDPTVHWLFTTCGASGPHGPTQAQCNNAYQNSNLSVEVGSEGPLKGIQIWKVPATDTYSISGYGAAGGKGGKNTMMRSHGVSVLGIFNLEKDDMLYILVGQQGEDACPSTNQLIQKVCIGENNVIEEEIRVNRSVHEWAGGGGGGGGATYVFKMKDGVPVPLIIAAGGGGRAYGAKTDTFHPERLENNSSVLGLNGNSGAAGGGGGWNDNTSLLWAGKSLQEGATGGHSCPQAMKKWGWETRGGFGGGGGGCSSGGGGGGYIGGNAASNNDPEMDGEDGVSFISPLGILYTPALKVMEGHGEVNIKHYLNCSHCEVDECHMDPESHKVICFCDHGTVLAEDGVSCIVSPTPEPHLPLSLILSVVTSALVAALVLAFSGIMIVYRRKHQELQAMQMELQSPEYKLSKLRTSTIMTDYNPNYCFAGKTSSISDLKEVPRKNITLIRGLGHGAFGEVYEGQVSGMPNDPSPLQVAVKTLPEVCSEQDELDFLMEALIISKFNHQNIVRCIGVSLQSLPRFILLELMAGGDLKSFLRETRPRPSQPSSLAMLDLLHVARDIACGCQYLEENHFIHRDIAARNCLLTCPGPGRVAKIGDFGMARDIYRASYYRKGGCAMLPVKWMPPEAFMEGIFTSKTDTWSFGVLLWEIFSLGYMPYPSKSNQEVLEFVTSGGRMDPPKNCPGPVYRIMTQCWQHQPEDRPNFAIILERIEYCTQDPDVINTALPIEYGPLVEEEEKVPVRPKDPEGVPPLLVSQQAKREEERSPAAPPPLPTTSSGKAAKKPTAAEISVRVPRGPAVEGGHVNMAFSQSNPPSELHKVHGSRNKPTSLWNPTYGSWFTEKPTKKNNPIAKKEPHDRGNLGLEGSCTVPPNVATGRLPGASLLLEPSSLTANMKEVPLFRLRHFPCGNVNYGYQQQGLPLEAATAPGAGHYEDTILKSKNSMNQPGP

Structure (SMILES): C[C@H]1Nc2ccn3ncc(c3n2)C(=O)NCCOc2ccc(F)cc21 [Example 51-1, (13R)-11-fluoro-13-methyl-6,7,13,14-tetrahydro-1,15-ethenopyrazolo[4,3-f][1,4,8,10]benzoxatriazacyclotridecin-4(5H)-one]
- IC50 [1]: 234 nM
- IC50 [2]: 289 nM
- IC50 [3]: 1.3 nM
- EML4-ALK Ba/F3 cell proli. TC50 [4]: 248 nM
- Kd (TRKA): 0.051 nM
- Kd (JAK3): 1.8 nM
- Kd (JAK1): 37 nM
- Kd (ROS1): 0.73 nM
- Kd (ALK): 6.8 nM
- Kd (JAK2): 0.048 nM

Structure (SMILES): C[C@@H]1CNC(=O)c2cnn3ccc(nc23)N[C@H](C)c2cc(F)ccc2O1 [Example 92, (7R,13R)-11-fluoro-7,13-dimethyl-6,7,13,14-tetrahydro-1,15-ethenopyrazolo[4,3-f][1,4,8,10]benzoxatriazacyclotridecin-4(5H)-one]
- IC50 [1]: 142 nM
- IC50 [2]: 88.7 nM
- IC50 [3]: 0.3 nM
- EML4-ALK Ba/F3 cell proli. TC50 [4]: 78.6 nM

Structure (SMILES): CC1Nc2ccn3ncc(c3n2)C(=O)NCCOc2ccc(F)cc21 (centres unmarked) [Example 51, 11-fluoro-13-methyl-6,7,13,14-tetrahydro-1,15-ethenopyrazolo[4,3-f][1,4,8,10]benzoxatriazacyclotridecin-4(5H)-one]
- IC50 [1]: 425 nM
- IC50 [2]: 832 nM
- IC50 [3]: 3.2 nM
- Kd (TRKA): 0.065 nM
- Kd (JAK3): 4.3 nM
- Kd (JAK1): 65 nM
- Kd (JAK2): 0.15 nM

Structure (SMILES): CC1Oc2ccc3ncc(n3n2)C(=O)NCCOc2ccc(F)cc21 (centres unmarked) [Example 41, 10-fluoro-8-methyl-15,16-dihydro-8H-3,6-ethenoimidazo[5,1-f][1,10,4,7,8]benzodioxatriazacyclotridecin-17(14H)-one]
- IC50 [1]: 1500 nM
- IC50 [2]: 3900 nM
- IC50 [3]: 118 nM
- Kd (TRKA): 6 nM
- Kd (JAK3): 33 nM
- Kd (JAK1): 280 nM
- Kd (ALK): 200 nM
- Kd (JAK2): 2.6 nM

Structure (SMILES): CN1Cc2cc(F)ccc2OCCNC(=O)c2cnn3ccc1nc23 [Example 20, 11-fluoro-14-methyl-6,7,13,14-tetrahydro-1,15-ethenopyrazolo[4,3-f][1,4,8,10]benzoxatriazacyclo-tridecin-4(5H)-one]
- IC50 [1]: 2000 nM
- apoptosis of KM 12 cells (KM12 cells): induced apoptosis
- IC50 [2]: 1000 nM
- IC50 [3]: 0.86 nM
- IC50 (ERK): 2 nM
- IC50 (AKT): 2.8 nM
- IC50 (TPM3-TRKA): 1.07 nM
- Kd (TRKB): 0.18 nM
- Kd (TRKA): 0.031 nM
- Kd (PLK4 kinase): 2.9 nM
- Kd (JAK3): 120 nM
- Kd (JAK1): > 1000 nM
- Kd (ROS1): 21 nM
- Kd (ALK): 80 nM
- Kd (JAK2): 4.8 nM

Structure (SMILES): C[C@H]1CNC(=O)c2cnn3ccc(nc23)N[C@H](C)c2cc(F)ccc2O1 [Example 93, (7S,13R)-11-fluoro-7,13-dimethyl-6,7,13,14-tetrahydro-1,15-ethenopyrazolo[4,3-f][1,4,8,10]benzoxatriazacyclotridecin-4(5H)-one]
- IC50 [1]: 242 nM
- IC50 [3]: 0.5 nM
- EML4-ALK Ba/F3 cell proli. TC50 [4]: 21.1 nM
